From patent US12552783B2, “Modulators of proteolysis and associated methods of use” (Arvinas Operations, Inc., priority 2018, dated 2026)

Target: KRas (Homo sapiens, UniProt P01116, G12C)
Assay: KRas degradation in NCI-H2030 cells by Western blot, normalized to GAPDH (data of Table 14)
Format: cell-based
Set-up: host or cells: NCI-H2030
Settings: for Dmax: NCI-H2030
Procedure, shortened: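 Cells plated overnight, switched to FBS-free medium for 24 h, then treated (0.3, 1, 3 μM final; 0.1% DMSO) for 24 h if VHL-based, otherwise 72 h. RIPA lysates (10 μg protein) blotted for KRas, signal normalized to GAPDH and compared with DMSO.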

Structure (SMILES)	Percent Degradation at Indicated Concentration (μM): 0.3 (H2030 cells, 0.3 μM)	Percent Degradation at Indicated Concentration (μM): 1 (H2030 cells, 1 μM)	Percent Degradation at Indicated Concentration (μM): 3 (H2030 cells, 3 μM)	Dmax (H2030 cells) [%]	Percent Degradation at Indicated Concentration (μM) (H2030, 3 μM)	other results
CCC(=O)N1CCN(c2nc(NCCC(=O)N(C)CCOCCOc3cc(-c4scnc4C)ccc3CNC(=O)[C@@H]3C[C@@H](O)CN3C(=O)[C@@H](c3cc(C)no3)C(C)C)nc3c(F)c(-c4cc(O)cc5ccccc45)c(Cl)cc23)CC1 [compound 330, (2S,4R)-N-(2-(2-(2-(3-((6-chloro-8-fluoro-7-(3-hydroxynaphthalen-1-yl)-4-(4-propionylpiperazin-1-yl)quinazolin-2-yl)amino)-N-methylpropanamido)ethoxy)ethoxy)-4-(4-methylthiazol-5-yl)benzyl)-4-hydroxy-1-((R)-3-methyl-2-(3-methylisoxazol-5-yl)butanoyl)pyrrolidine-2-carboxamide]	C (C ≤ 35)	C (C ≤ 35)	C (C ≤ 35)	≤ 35		
C=CC(=O)N1CCN(c2nc(NCCC(=O)N(C)CCOCCOCCOCCOCCNc3cccc4c3C(=O)N(C3CCC(=O)NC3=O)C4=O)nc3c(F)c(-c4c(O)cccc4F)c(Cl)cc23)CC1 [compound 115, 3-(((S)-4-(4-acryloylpiperazin-1-yl)-6-chloro-8-fluoro-7-(2-fluoro-6-hydroxyphenyl)quinazolin-2-yl)amino)-N-(14-((2-(2,6-dioxopiperidin-3-yl)-1,3-dioxoisoindolin-4-yl)amino)-3,6,9,12-tetraoxatetradecyl)-N-methylpropanamide]					C (Percent Degradation: C ≤ 35)	
C=CC(=O)N1CCN(c2nc(NCCC(=O)N(C)CCOCCOCCOCC(=O)N[C@H](C(=O)N3C[C@H](O)C[C@H]3C(=O)N[C@@H](C)c3ccc(-c4scnc4C)cc3)C(C)(C)C)nc3c(F)c(-c4c(O)cccc4F)c(Cl)cc23)CC1 (atropisomer, axis not shown) [compound 210, (2S,4R)-1-((S)-18-((4-(4-acryloylpiperazin-1-yl)-6-chloro-8-fluoro-7-((R)-2-fluoro-6-hydroxyphenyl)quinazolin-2-yl)amino)-2-(tert-butyl)-15-methyl-4,16-dioxo-6,9,12-trioxa-3,15-diazaoctadecanoyl)-4-hydroxy-N-((S)-1-(4-(4-methylthiazol-5-yl)phenyl)ethyl)pyrrolidine-2-carboxamide]					C (Percent Degradation: C ≤ 35)	Percent Degradation at Indicated Concentration (μM) (H2030, 0.3 μM): C (Percent Degradation: C ≤ 35); Percent Degradation at Indicated Concentration (μM) (H2030, 1 μM): C (Percent Degradation: C ≤ 35); Dmax: ≤ 35%
C=CC(=O)N1CCN(c2nc(NCCC(=O)N(C)CCOCCOc3cc(-c4scnc4C)ccc3CNC(=O)[C@@H]3C[C@@H](O)CN3C(=O)[C@H](c3cc(C)no3)C(C)C)nc3c(F)c(-c4cc(O)cc5ccccc45)c(Cl)cc23)CC1 [compound 340, (2S,4R)-N-(2-(2-(2-(3-((4-(4-acryloylpiperazin-1-yl)-6-chloro-8-fluoro-7-(3-hydroxynaphthalen-1-yl)quinazolin-2-yl)amino)-N-methylpropanamido)ethoxy)ethoxy)-4-(4-methylthiazol-5-yl)benzyl)-4-hydroxy-1-((S)-3-methyl-2-(3-methylisoxazol-5-yl)butanoyl)pyrrolidine-2-carboxamide]	C (C ≤ 35)	C (C ≤ 35)	C (C ≤ 35)	≤ 35		
Cc1ncsc1-c1ccc([C@H](C)NC(=O)[C@@H]2C[C@@H](O)CN2C(=O)[C@@H](NC(=O)COCCN(C)C(=O)CCNc2nc(N3CCN(C(=O)C(O)O)CC3)c3cc(Cl)c(-c4c(O)cccc4F)c(F)c3n2)C(C)(C)C)cc1 (atropisomer, axis not shown) [compound 235, (2S,4R)-1-((S)-2-(2-(2-(3-(((R)-6-chloro-4-(4-(2,2-dihydroxyacetyl)piperazin-1-yl)-8-fluoro-7-(2-fluoro-6-hydroxyphenyl)quinazolin-2-yl)amino)-N-methylpropanamido)ethoxy)acetamido)-3,3-dimethylbutanoyl)-4-hydroxy-N-((S)-1-(4-(4-methylthiazol-5-yl)phenyl)ethyl)pyrrolidine-2-carboxamide]						Percent Degradation at Indicated Concentration (μM) (H2030 cells, 0.3 μM): C (Percent Degradation: C ≤ 35); Percent Degradation at Indicated Concentration (μM) (H2030 cells, 1 μM): C (Percent Degradation: C ≤ 35); Percent Degradation at Indicated Concentration (μM) (H2030 cells, 3 μM): C (Percent Degradation: C ≤ 35)
CC(=O)N1CCN(c2nc(NCCC(=O)N(C)CCOCC(=O)N[C@H](C(=O)N3C[C@H](O)C[C@H]3C(=O)N[C@@H](C)c3ccc(-c4scnc4C)cc3)C(C)(C)C)nc3c(F)c(-c4cc(O)cc5ccccc45)c(Cl)cc23)CC1 [compound 200, (2S,4R)-1-((2S)-2-(2-(2-(3-((4-(4-acetylpiperazin-1-yl)-6-chloro-8-fluoro-7-(3-hydroxynaphthalen-1-yl)quinazolin-2-yl)amino)-N-methylpropanamido)ethoxy)acetamido)-3,3-dimethylbutanoyl)-4-hydroxy-N-((S)-1-(4-(4-methylthiazol-5-yl)phenyl)ethyl)pyrrolidine-2-carboxamide]					C (Percent Degradation: C ≤ 35)	Percent Degradation at Indicated Concentration (μM) (H2030, 0.3 μM): C (Percent Degradation: C ≤ 35); Percent Degradation at Indicated Concentration (μM) (H2030, 1 μM): C (Percent Degradation: C ≤ 35); Dmax: ≤ 35%
C=CC(=O)N1CCN(c2nc(O[C@H](C)CN3CCC(OCCOc4ccc5c(c4)C(=O)N(C4CCC(=O)NC4=O)C5=O)CC3)nc3c2CCN(c2cc(O)cc4ccccc24)C3)CC1 (stereo partly drawn) [compound 416, 5-(2-((1-((R)-2-((4-(4-acryloylpiperazin-1-yl)-7-(3-hydroxynaphthalen-1-yl)-5,6,7,8-tetrahydropyrido[3,4-d]pyrimidin-2-yl)oxy)propyl)piperidin-4-yl)oxy)ethoxy)-2-(2,6-dioxopiperidin-3-yl)isoindoline-1,3-dione]						Percent Degradation at Indicated Concentration (μM) (H2030 cells, 0.3 μM): C (Percent Degradation: C ≤ 35); Percent Degradation at Indicated Concentration (μM) (H2030 cells, 1 μM): C (Percent Degradation: C ≤ 35); Percent Degradation at Indicated Concentration (μM) (H2030 cells, 3 μM): C (Percent Degradation: C ≤ 35)
C=CC(=O)N1CCN(c2nc(NCCC(=O)N(C)CCOc3cc(-c4scnc4C)ccc3CNC(=O)[C@@H]3C[C@@H](O)CN3C(=O)[C@H](c3cc(C)no3)C(C)C)nc3c(F)c(-c4c(O)cccc4F)c(Cl)cc23)CC1 (atropisomer, axis not shown) [compound 127, (25,4R)-N-(2-(2-(3-(((S)-4-(4-acryloylpiperazin-1-yl)-6-chloro-8-fluoro-7-(2-fluoro-6-hydroxyphenyl)quinazolin-2-yl)amino)-N-methylpropanamido)ethoxy)-4-(4-methylthiazol-5-yl)benzyl)-4-hydroxy-1-((S)-3-methyl-2-(3-methylisoxazol-5-yl)butanoyl)pyrrolidine-2-carboxamide]					C (Percent Degradation: C ≤ 35)	Percent Degradation at Indicated Concentration (μM) (H2030, 0.3 μM): C (Percent Degradation: C ≤ 35); Percent Degradation at Indicated Concentration (μM) (H2030, 1 μM): C (Percent Degradation: C ≤ 35); Dmax: ≤ 35%

Continued, in another order:

Percent Degradation at Indicated Concentration (μM): 0.3 (H2030 cells, 0.3 μM)	Percent Degradation at Indicated Concentration (μM): 1 (H2030 cells, 1 μM)	Percent Degradation at Indicated Concentration (μM): 3 (H2030 cells, 3 μM)	Dmax (H2030 cells) [%]	Percent Degradation at Indicated Concentration (μM) (H2030, 3 μM)	Structure (SMILES)	other results
C (C ≤ 35)	C (C ≤ 35)	C (C ≤ 35)	≤ 35		CCC(=O)N1CCN(c2nc(NCCC(=O)N(C)CCOCCOCCOCCOCCOc3ccc4c(c3)CN(C3CCC(=O)NC3=O)C4=O)nc3c(F)c(-c4cc(O)cc5ccccc45)c(Cl)cc23)CC1 (stereo not shown) [compound 54, 3-((6-chloro-8-fluoro-7-(3-hydroxynaphthalen-1-yl)-4-(4-propionylpiperazin-1-yl)quinazolin-2-yl)amino)-N-(14-((2-(2,6-dioxopiperidin-3-yl)-1-oxoisoindolin-5-yl)oxy)-3,6,9,12-tetraoxatetradecyl)-N-methylpropanamide]	
C (C ≤ 35)	C (C ≤ 35)	C (C ≤ 35)	≤ 35		C=CC(=O)N1CCN(c2nc(NCCC(=O)N(C)CCOCCOCCOc3ccc4c(c3)CN(C3CCC(=O)NC3=O)C4=O)nc3c(F)c(-c4cc(O)cc5ccccc45)c(Cl)cc23)CC1 (stereo not shown) [compound 66, 3-((4-(4-acryloylpiperazin-1-yl)-6-chloro-8-fluoro-7-(3-hydroxynaphthalen-1-yl)quinazolin-2-yl)amino)-N-(2-(2-(2-((2-(2,6-dioxopiperidin-3-yl)-1-oxoisoindolin-5-yl)oxy)ethoxy)ethoxy)ethyl)-N-methylpropanamide]	
C (C ≤ 35)	C (C ≤ 35)		≤ 35		C=CC(=O)N1CCN(c2nc(NCCC(=O)N(C)CCOCCOCCOCCOCCOc3ccc4c(c3)C(=O)N(C3CCC(=O)NC3=O)C4=O)nc3c(F)c(-c4cc(O)cc5ccccc45)c(Cl)cc23)CC1 (stereo not shown) [compound 63, 3-((4-(4-acryloylpiperazin-1-yl)-6-chloro-8-fluoro-7-(3-hydroxynaphthalen-1-yl)quinazolin-2-yl)amino)-N-(14-((2-(2,6-dioxopiperidin-3-yl)-1,3-dioxoisoindolin-5-yl)oxy)-3,6,9,12-tetraoxatetradecyl)-N-methylpropanamide]	Percent Degradation at Indicated Concentration (μM): 0.1 (H2030 cells, 0.1 μM): C (C ≤ 35)
C (C ≤ 35)	C (C ≤ 35)	C (C ≤ 35)	≤ 35		CCC(=O)N1CCN(c2nc(NCCC(=O)N(C)CCOCCOCCOCCOCCOc3ccc4c(c3)C(=O)N(C3CCC(=O)NC3=O)C4=O)nc3c(F)c(-c4cc(O)cc5ccccc45)c(Cl)cc23)CC1 (stereo not shown) [compound 50, 3-((6-chloro-8-fluoro-7-(3-hydroxynaphthalen-1-yl)-4-(4-propionylpiperazin-1-yl)quinazolin-2-yl)amino)-N-(14-((2-(2,6-dioxopiperidin-3-yl)-1,3-dioxoisoindolin-5-yl)oxy)-3,6,9,12-tetraoxatetradecyl)-N-methylpropanamide]	
